From article PMC3914891, “Pentacyclic Nitrofurans with In Vivo Efficacy and Activity against Nonreplicating Mycobacterium tuberculosis” (PLoS ONE, 2014)
In brackets after ≈: the same amount, converted by molar mass. Where two headings read alike, the source gives them in different places.

Legend:
M. tuberculosis = test: MIC determination, microbroth dilution, M. tuberculosis; format: cell-based, Mycobacterium tuberculosis; settings: Mycobacterium tuberculosis
[1] = system: Staphylococcus aureus (ATCC 29213); test: MIC, spectrum of activity: S.a.; format: cell-based; settings: ATCC29213, read-out: Minimum Inhibitory Concentration, S.a
[2] = system: Staphylococcus aureus (NRS70); test: MIC, spectrum of activity: MRSA; format: cell-based; settings: read-out: Minimum Inhibitory Concentration, MRSA
[3] = system: Bacillus subtilis (ATCC 23857); test: MIC, spectrum of activity: B.s.; format: cell-based; settings: ATCC23857, read-out: Minimum Inhibitory Concentration, B.s.
[4] = system: Streptococcus pyogenes (ATCC 700294); test: MIC, spectrum of activity: S.py; format: cell-based; settings: ATCC700294, read-out: Minimum Inhibitory Concentration, S. Py.
[5] = system: Streptococcus pneumoniae (R6); test: MIC, spectrum of activity: S.pn; format: cell-based; settings: read-out: Minimum Inhibitory Concentration, S. Pn.
[6] = system: Enterococcus faecalis (ATCC 33186); test: MIC, spectrum of activity: E.f.; format: cell-based; settings: ATCC33186, read-out: Minimum Inhibitory Concentration, E.f.
[7] = system: Bacillus anthracis sterne 34F2; test: microbe, parasite or virus in culture; format: cell-based; settings: STERNE34F2, read-out: Minimum Inhibitory Concentration, B.a.
[8] = system: Burkholderia cepacia (ATCC 25416); test: MIC, spectrum of activity: B.c.; format: cell-based; settings: ATCC25416, read-out: Minimum Inhibitory Concentration, B.c.
[9] = system: Stenotrophomonas maltophilia (ATCC 13637); test: MIC, spectrum of activity: S.m.; format: cell-based; settings: ATCC13637, read-out: Minimum Inhibitory Concentration, S.m.
[10] = system: Escherichia coli (ATCC 700926); test: MIC, spectrum of activity: E.c.; format: cell-based; settings: ATCC700926, read-out: Minimum Inhibitory Concentration, E.c.
E. coli K12 ∆tolC = format: cell-based; settings: E. coli K12 ∆tolC (efflux pump deficient)
physchem = settings: pH 7.4, aqueous buffer
in vitro [11] = settings: mouse, microsomes
in vitro [12] = settings: mouse, plasma
[13] = In vitro cytotoxicity against Vero cells; settings: African green monkey, Vero cells (kidney epithelial cells, ATCC CCL-81)
Vero cells = test: In vitro cytotoxicity against Vero cells
[14] = system: M. abscessus (ATCC 19977); test: MIC, non-tuberculosis mycobacteria: M. abscessus; format: cell-based; settings: Mycobacteroides abscessus, ATCC19977, 72 h, read-out: Minimum Inhibitory Concentration, M. abscessus
M. avium (ATCC 25291) = test: MIC, non-tuberculosis mycobacteria: M. avium; format: cell-based; settings: Mycobacterium avium, ATCC25291, 168 h; broth dilution, visual inspection, 7 days; read-out: Minimum Inhibitory Concentration, M. avium
M. kansasii (ATCC 12478) = test: MIC, non-tuberculosis mycobacteria: M. kansasii; format: cell-based; settings: Mycobacterium kansasii, ATCC12478, 168 h; broth dilution, visual inspection, 7 days; read-out: Minimum Inhibitory Concentration, M. kansasii
M. fortuitum (ATCC 6841) = test: MIC, non-tuberculosis mycobacteria: M. fortuitum; format: cell-based; settings: Mycolicibacterium fortuitum, ATCC6841, 72 h; broth dilution, visual inspection, 3 days; read-out: Minimum Inhibitory Concentration, M. fortuitum
M. ulcerans (ATCC 35840) = test: MIC by agar proportion method: M. ulcerans; format: cell-based; settings: Mycobacterium ulcerans, ATCC35840, 672 h, read-out: Minimum Inhibitory Concentration, M. ulcerans
[15] = system: M. tuberculosis strain H37Rv; test: Checkerboard synergy assay; format: cell-based, Mycobacterium tuberculosis; settings: for MIC: Mycobacterium tuberculosis, H37RV, 168 h, read-out: MIC Alone
[16] = system: hypoxic M. tuberculosis strain H37Rv; test: NRP bacteria under hypoxia (rapid anaerobic dormancy model); format: cell-based, Mycobacterium tuberculosis
[17] = male, Sprague-Dawley, rat, in vivo; for fe (fraction excreted unchanged in urine): iv, 10 mg/kg; for Cmin,24 h: po, 100 mg/kg
[18] = rats; IV 10 mg/kg and oral 100 mg/kg
in vivo = settings: male, Sprague-Dawley, rat; for Vd / clearance / half-life: iv, 10 mg/kg; for AUC(0-inf) / Cmax / bioavailability: po, 100 mg/kg
M. tuberculosis H37Rv = test: Minimum bactericidal concentration determination; format: cell-based, Mycobacterium tuberculosis

Compound | MIC (M. tuberculosis; 168 h, read-out: M. tb. MIC) [µg/mL] | MIC [1] [µg/mL] | MIC [2] [µg/mL] | MIC [3] [µg/mL] | MIC [4] [µg/mL] | MIC [5] [µg/mL] | MIC [6] [µg/mL] | MIC [7] [µg/mL] | MIC [8] [µg/mL] | MIC [9] [µg/mL] | MIC [10] [µg/mL] | Minimum Inhibitory Concentration, E.c. ΔtolC (E. coli K12 ∆tolC) [µg/mL] | solubility (physchem) [µg/mL] | half-life (in vitro [11]) [h] | fraction unbound (in vitro [12]) | IC50 [13] [µg/mL] | Selective Index (Cytox/MIC) (Vero cells) | FICI with 9a [15] | MIC in presence of 9a [15] [µg/mL] | Type of Interaction [15] | further results
O=[N+]([O-])c1ccc(C2=NOC(c3ccc(N4CCC(Oc5ccc(F)cc5)CC4)cc3)C2)o1 (centres unmarked) [Compound 9d, 5-(4-(4-(4-Fluorophenoxy)piperidin-1-yl)phenyl)-3-(5-nitrofuran-2-yl)-4,5-dihydroisoxazole] | 0.012 | 6.3 (≈ 14 µM) | 100 (≈ 222 µM) | 100 (≈ 222 µM) | > 200 | > 200 | > 200 | > 200 | 50 (≈ 111 µM) | 6.3 (≈ 14 µM) | > 200 | >200 | 0.7 (≈ 1.55 µM) | 1.43 | 0.009 | 14.7 (≈ 32.6 µM) | 1225 | – | – | – | –
CO[C@H]1/C=C/O[C@@]2(C)Oc3c(C)c(O)c4c(O)c(c(/C=N/N5CCN(C)CC5)c(O)c4c3C2=O)NC(=O)/C(C)=C\C=C\[C@H](C)[C@H](O)[C@@H](C)[C@@H](O)[C@@H](C)[C@H](OC(C)=O)[C@@H]1C [Rifampin] | – | – | – | – | – | – | – | – | – | – | – | – | – | – | – | – | – | 0.38 | 0.003 | Synergy (key: Synergy: synergy (FICI ≤0.5); Indifference: indifference (FICI >0.5–4.0); Antagonism: antagonism (FICI >4.0)) | MIC ([14]; broth dilution, visual inspection, 3 days, range of at least two independent experiments): 50 µg/mL (≈ 60.8 µM); MIC (M. avium (ATCC 25291)): 6.3 µg/mL (≈ 7.66 µM); MIC (M. kansasii (ATCC 12478)): 0.39 µg/mL (≈ 0.474 µM); MIC (M. fortuitum (ATCC 6841)): 1.56 µg/mL (≈ 1.9 µM); MIC (M. ulcerans (ATCC 35840)): 0.1 to 0.4 µg/mL (≈ 0.122 to 0.486 µM); fold decrease of MIC in the presence of 9a [15]: ~10 fold; MIC [15]: 0.02 to 0.05 µg/mL; % Growth vs. Control [16]: <0.1%
O=[N+]([O-])c1ccc(C2=NOC(c3ccc(N4CCC(Oc5ccc(OC(F)(F)F)cc5)CC4)nc3)C2)o1 (centres unmarked) [Compound 9b, 3-(5-Nitrofuran-2-yl)-5-(6-(4-(4-(trifluoromethoxy)phenoxy)piperidin-1-yl)pyridin-3-yl)-4,5-dihydroisoxazole] | 0.006 | 200 (≈ 386 µM) | 200 (≈ 386 µM) | > 200 | 200 (≈ 386 µM) | 200 (≈ 386 µM) | > 200 | 50 (≈ 96.4 µM) | 100 (≈ 193 µM) | 100 (≈ 193 µM) | > 200 | >200 | 1.6 (≈ 3.09 µM) | 6.91 | 0.001 | 4 (≈ 7.72 µM) | 667 | – | – | – | fe (fraction excreted unchanged in urine) [17]: 0.01 (0.00) %; Cmin,24 h [17]: 0.11 (0.11) mg/L; Toxicity by intravenous and oral dosing [18]: non-toxic; Vd (in vivo): 1.53 L/kg; clearance (in vivo): 7 mL/min/kg; half-life (in vivo): 2.48 h; AUC(0-inf) (in vivo): 15100 ng·h/mL; Cmax (in vivo): 2310 ng/mL; bioavailability (in vivo): 8%
CC[C@@H](CO)NCCN[C@@H](CC)CO [Ethambutol] | – | – | – | – | – | – | – | – | – | – | – | – | – | – | – | – | – | 0.75–1.00 | 0.8 | Indifference (key: Synergy: synergy (FICI ≤0.5); Indifference: indifference (FICI >0.5–4.0); Antagonism: antagonism (FICI >4.0)) | MIC [15]: 1.6 µg/mL
[H]/N=C(/N)N[C@H]1[C@H](O)[C@@H](O)[C@H](O[C@@H]2O[C@@H](C)[C@](O)(C=O)[C@H]2O[C@@H]2O[C@@H](CO)[C@H](O)[C@@H](O)[C@@H]2NC)[C@@H](N/C(N)=N\[H])[C@@H]1O [Streptomycin] | – | – | – | – | – | – | – | – | – | – | – | – | – | – | – | – | – | 0.75 | 0.4 to 0.8 | Indifference (key: Synergy: synergy (FICI ≤0.5); Indifference: indifference (FICI >0.5–4.0); Antagonism: antagonism (FICI >4.0)) | MIC [15]: 1.6 µg/mL; Classification (M. tuberculosis H37Rv): Cidal (key: Cidal: cidal (MBC/MIC ≤4); Static: static (MBC/MIC >4)); MBC (M. tuberculosis H37Rv): 3.13–6.25; MBC/MIC (M. tuberculosis H37Rv): ≤ 4
O=[N+]([O-])c1ccc(C2=NOC(c3ccc(N4CCC(Oc5ccc(F)cc5)CC4)nc3)C2)o1 (centres unmarked) [Compound 9e, 5-(6-(4-(4-Fluorophenoxy)piperidin-1-yl)pyridin-3-yl)-3-(5-nitrofuran-2-yl)-4,5-dihydroisoxazole] | 0.002 | > 200 | 50 (≈ 111 µM) | 50 (≈ 111 µM) | > 200 | > 200 | 50 (≈ 111 µM) | > 200 | 50 (≈ 111 µM) | 6.3 (≈ 13.9 µM) | > 200 | >200 | 2.2 (≈ 4.86 µM) | 1.93 | 0.002 | 7.5 (≈ 16.6 µM) | 3750 | – | – | – | –
O=[N+]([O-])c1ccc(C2=NOC(c3ccc(N4CCC(Oc5ccc(OC(F)(F)F)cc5)CC4)c(F)c3)C2)o1 (centres unmarked) [Compound 9c, 5-(3-Fluoro-4-(4-(4-(trifluoromethoxy)phenoxy)piperidin-1-yl)phenyl)-3-(5-nitrofuran-2-yl)-4,5-dihydroisoxazole] | 0.001 | > 200 | > 200 | 200 (≈ 374 µM) | 200 (≈ 374 µM) | > 200 | > 200 | 12.5 (≈ 23.3 µM) | > 200 | > 200 | > 200 | >200 | 1.9 (≈ 3.55 µM) | 7.04 | 0.024 | 21.4 (≈ 40 µM) | 21400 | – | – | – | fe (fraction excreted unchanged in urine) [17]: 0.02 (0.00) %; Cmin,24 h [17]: 0.02 (0.02) mg/L; Toxicity by intravenous and oral dosing [18]: Central nervous system toxicity (seizures); Vd (in vivo): 1.69 L/kg; clearance (in vivo): 6.83 mL/min/kg; half-life (in vivo): 5.6 h; AUC(0-inf) (in vivo): 1610 ng·h/mL; Cmax (in vivo): 150 ng/mL; bioavailability (in vivo): 0.83%
NCC[C@H](O)C(=O)N[C@@H]1C[C@H](N)[C@@H](O[C@H]2O[C@H](CN)[C@@H](O)[C@H](O)[C@H]2O)[C@H](O)[C@H]1O[C@H]1O[C@H](CO)[C@@H](O)[C@H](N)[C@H]1O [Amikacin] | – | – | – | – | – | – | – | – | – | – | – | – | – | – | – | – | – | – | – | – | MIC [14]: 3.13 to 6.25 µg/mL (≈ 5.34 to 10.7 µM); MIC (M. avium (ATCC 25291)): 12.5 µg/mL (≈ 21.3 µM); MIC (M. kansasii (ATCC 12478)): 6.25 to 12.5 µg/mL (≈ 10.7 to 21.3 µM); MIC (M. fortuitum (ATCC 6841)): 0.78 µg/mL (≈ 1.33 µM)
O=[N+]([O-])c1ccc(C2=NOC(c3ccc(N4CCC(Oc5ccc(F)cc5)CC4)c(F)c3)C2)o1 (centres unmarked) [Compound 9f, 5-(3-Fluoro-4-(4-(4-fluorophenoxy)piperidin-1-yl)phenyl)-3-(5-nitrofuran-2-yl)-4,5-dihydroisoxazole] | 0.012 | 3.13 (≈ 6.67 µM) | 12.5 (≈ 26.6 µM) | 25 (≈ 53.3 µM) | 50 (≈ 107 µM) | 25 (≈ 53.3 µM) | 6.3 (≈ 13.4 µM) | > 200 | 12.5 (≈ 26.6 µM) | > 200 | > 200 | 12.5 | 0.8 (≈ 1.7 µM) | 1.74 | 0.002 | 8 (≈ 17 µM) | 667 | – | – | – | –
CC(=O)NC[C@H]1CN(c2ccc(N3CCOCC3)c(F)c2)C(=O)O1 [Linezolid] | – | – | – | – | – | – | – | – | – | – | – | – | – | – | – | – | – | 1.00 | 0.8 | Indifference (key: Synergy: synergy (FICI ≤0.5); Indifference: indifference (FICI >0.5–4.0); Antagonism: antagonism (FICI >4.0)) | MIC [15]: 1.6 µg/mL
C[C@]1(COc2ccc(N3CCC(Oc4ccc(OC(F)(F)F)cc4)CC3)cc2)Cn2cc([N+](=O)[O-])nc2O1 [OPC-67683] | 0.01 | – | – | – | – | – | – | – | – | – | – | – | – | 27.2 | 0.002 | 107 (≈ 200 µM) | – | – | – | – | MIC (M. tuberculosis; M. tuberculosis, […], read-out: MIC): 0.019 µM; MBC (M. tuberculosis H37Rv): >3; Classification (M. tuberculosis H37Rv; cidal or static from MBC versus MIC): Static (static (MBC/MIC >4))
